pIC50: −log10 of the molar value.

Chain of human ACC2 (O00763 129-2458): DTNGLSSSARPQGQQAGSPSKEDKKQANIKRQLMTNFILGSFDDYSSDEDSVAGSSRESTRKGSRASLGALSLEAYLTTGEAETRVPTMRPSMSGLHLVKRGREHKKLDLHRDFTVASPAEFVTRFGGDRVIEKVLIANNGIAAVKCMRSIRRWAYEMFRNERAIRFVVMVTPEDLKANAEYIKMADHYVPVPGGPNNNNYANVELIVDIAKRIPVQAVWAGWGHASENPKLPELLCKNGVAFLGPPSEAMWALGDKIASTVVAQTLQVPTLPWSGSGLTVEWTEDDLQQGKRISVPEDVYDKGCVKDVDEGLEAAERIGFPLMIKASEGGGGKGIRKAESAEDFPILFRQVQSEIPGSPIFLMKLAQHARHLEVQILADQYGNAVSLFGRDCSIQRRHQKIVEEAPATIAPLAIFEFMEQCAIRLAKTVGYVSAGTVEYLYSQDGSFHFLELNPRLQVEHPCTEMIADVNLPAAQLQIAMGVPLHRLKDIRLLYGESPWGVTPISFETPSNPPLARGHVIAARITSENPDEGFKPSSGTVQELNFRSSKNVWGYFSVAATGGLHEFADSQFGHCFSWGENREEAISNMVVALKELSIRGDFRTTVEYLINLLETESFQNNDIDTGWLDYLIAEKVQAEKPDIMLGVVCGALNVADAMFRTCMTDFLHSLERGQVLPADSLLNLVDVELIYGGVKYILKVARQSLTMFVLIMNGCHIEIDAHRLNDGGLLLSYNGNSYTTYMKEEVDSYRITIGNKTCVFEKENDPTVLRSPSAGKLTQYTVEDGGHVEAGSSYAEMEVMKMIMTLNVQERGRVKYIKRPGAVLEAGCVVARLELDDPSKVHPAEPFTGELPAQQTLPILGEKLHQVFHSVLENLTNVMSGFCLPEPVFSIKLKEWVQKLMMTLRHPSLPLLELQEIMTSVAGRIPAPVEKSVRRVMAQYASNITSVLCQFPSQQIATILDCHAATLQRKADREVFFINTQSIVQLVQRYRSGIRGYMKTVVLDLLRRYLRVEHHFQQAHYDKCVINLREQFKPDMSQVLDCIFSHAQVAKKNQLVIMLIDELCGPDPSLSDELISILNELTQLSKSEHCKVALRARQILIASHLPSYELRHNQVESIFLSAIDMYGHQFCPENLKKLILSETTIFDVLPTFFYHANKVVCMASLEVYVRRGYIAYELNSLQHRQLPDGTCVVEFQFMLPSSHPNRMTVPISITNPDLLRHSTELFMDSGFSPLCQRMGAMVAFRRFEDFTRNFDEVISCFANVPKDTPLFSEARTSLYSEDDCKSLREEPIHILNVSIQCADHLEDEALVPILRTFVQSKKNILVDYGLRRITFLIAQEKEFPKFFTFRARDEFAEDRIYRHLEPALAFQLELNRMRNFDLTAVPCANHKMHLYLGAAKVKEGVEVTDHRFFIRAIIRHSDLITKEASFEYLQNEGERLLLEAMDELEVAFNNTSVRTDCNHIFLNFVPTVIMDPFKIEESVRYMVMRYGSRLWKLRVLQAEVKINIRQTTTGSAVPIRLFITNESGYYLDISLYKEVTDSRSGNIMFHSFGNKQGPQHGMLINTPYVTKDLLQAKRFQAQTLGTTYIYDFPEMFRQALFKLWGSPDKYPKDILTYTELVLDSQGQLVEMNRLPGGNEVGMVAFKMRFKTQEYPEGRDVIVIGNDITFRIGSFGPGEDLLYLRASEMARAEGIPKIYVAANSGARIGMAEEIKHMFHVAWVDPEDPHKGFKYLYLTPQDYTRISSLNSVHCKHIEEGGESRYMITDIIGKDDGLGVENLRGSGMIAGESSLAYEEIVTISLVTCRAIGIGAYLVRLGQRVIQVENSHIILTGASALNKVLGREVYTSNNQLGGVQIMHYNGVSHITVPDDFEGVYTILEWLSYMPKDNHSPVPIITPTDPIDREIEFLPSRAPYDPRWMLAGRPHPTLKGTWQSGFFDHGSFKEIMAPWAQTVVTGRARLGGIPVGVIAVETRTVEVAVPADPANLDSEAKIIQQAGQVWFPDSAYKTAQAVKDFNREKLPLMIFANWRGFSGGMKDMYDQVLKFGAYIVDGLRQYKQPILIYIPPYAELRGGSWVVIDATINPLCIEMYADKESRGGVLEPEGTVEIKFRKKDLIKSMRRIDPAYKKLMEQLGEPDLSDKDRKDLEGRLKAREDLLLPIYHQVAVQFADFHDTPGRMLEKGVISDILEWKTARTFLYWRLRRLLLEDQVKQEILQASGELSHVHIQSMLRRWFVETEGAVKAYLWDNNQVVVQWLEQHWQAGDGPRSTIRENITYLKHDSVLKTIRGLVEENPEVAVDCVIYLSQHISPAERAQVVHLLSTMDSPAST

This experiment has as its target human ACC2 (Homo sapiens (Human), UniProt O00763). Kind of experiment: ACC2 assay, spectrophotometric 384 well assay (NADH-linked, coupled lactate dehydrogenase/pyruvate kinase reaction). The format is biochemical. Conditions: hACC2 construct lacking the 128 N-terminal amino acids; 25° C., 340 nm over 15 minutes. How it is done: Spectrophotometric 384 Well Assay
Malonyl CoA formation by acetyl CoA carboxylases is stoichometrically linked to the consumption of ATP. ACC2 activity is measured in a NADH-linked kinetic method measuring ADP generated during the ACC reaction using a coupled lactate dehydrogenase/pyruvate kinase reaction.
For biological testing, a human ACC2 construct which lacks the 128 amino acids at the N-terminus for increased solubility (nt 385-6966 in Genbank entry AJ575592) is cloned. The protein is then expressed in insect cells using a baculoviral expression system. Protein purification is performed by anion exchange.
All compounds are dissolved in dimethyl sulfoxide (DMSO) to a concentration of 10 mM.
Assay reactions are then carried out in 384-well plates, with hACC2 in an appropriate dilution and at final assay concentrations (f.c.) of 100 mM Tris (pH 7.5), 10 mM trisodium citrate, 25 mM KHCO3, 10 mM MgCl2, 0.5 mg/mL BSA, 3.75 mM reduced L-glutathione, 15 U/mL lactate dehydrogenase, 0.5 mM phosphoenolpyruvate, 15 U/mL pyruvate kinase, compounds at different concentrations at final DMSO concentrations of 1%.
The enzymatic reaction is then started by addition of a mixture of NADH, acetyl Coenzyme A (both 200 μM f.c.) and ATP (500 uM f.c.). The decrease of the optical density (slope S) is then determined at 25° C. at a wavelength of 340 nm over 15 minutes in a spectrophotometric reader.
Each assay microtiter plate contains wells with vehicle instead of compound as controls for the non-inhibited enzyme (100% CTL; ‘HIGH’) and wells without acetyl-CoA as controls for non-specific NADH degradation (0% CTL; ‘LOW’).
The slope S is used for calculation of % CTL=(S(compound)−S(‘LOW’))/(S(‘HIGH’)−S(‘LOW’))*100. Compounds will give values between 100% CTL (no inhibition) and 0% CTL (complete inhibition).
For IC50 value determination, the sample slope in the presence of the test compound after subtraction of the low controls (S(compound)−S(‘LOW’)) are used. An IC50 value is derived from the compound slopes at different dosages after subtraction of the low controls (S(compound)−S(‘LOW’)) by non-linear regression curve fitting (equation y=(A+((B−A)/(1+((C/x)^D))))).
In the case of `CCOc1cc(C#Cc2ccc(C[C@H](C)NC(C)=O)cc2)ccn1` (stereo in doubt) [Example 23.1, N-{2-[4-(2-Ethoxy-pyridin-4-ylethynyl)-phenyl]-1-methyl-ethyl}-acetamide], the pIC50 is 6.64. Turning to `CCC(C)Nc1ncc(C#Cc2ccc(CC(C)NC(C)=O)cc2)cn1` (stereo not shown) [15.1], the pIC50 is 6.80. On to `CCOc1cc(C#Cc2ccc(CC(C)NC(C)=O)cc2)ncn1` (stereo not shown) [17.1], for which the pIC50 was 5.72. Compared with the last molecule, the pIC50 is 1.08 log units lower. Next, `CCOc1ccc(C#Cc2ccc(CC(C)N3CC(C)(C)C3=O)cc2)cc1` (stereo not shown) [19.1]: 5.74. On to `CC(=O)NC(C)Cc1ccc(C#Cc2ccc(-c3ccccc3)cc2)cc1` (stereo not shown) [21.1], for which the pIC50 is 6.89. Molecule `COc1ccc(C#Cc2ccc(CC(C)NC(C)=O)cc2)cc1OC` (stereo not shown) [22.1] showed a negative logarithm of the IC50 (pIC50) of 5.80. Turning to `CC(=O)NC(C)Cc1ccc(C#Cc2ccc(C(C)(C)C)cc2)cc1` (stereo not shown) [25.1], the pIC50 is 6.85. Next, `CCOc1ccc(C#Cc2ccc(CCNC(C)=O)nc2)cc1` [26.1]: 5.14.

`C[C@H](NC(=O)C1CC1)c1ccc(I)cc1` [28.1]: the pIC50 was 4.61. In the case of `CC(=O)NC(C)Cc1ccc(C#Cc2ccnc(N(C)C3CCCC3)n2)cc1` (stereo not shown) [30.1], the negative-log IC50 (pIC50) was 6.48. In turn, `CC(Cc1ccc(C#Cc2cnc(OC3CCC3)nc2)cc1)NC(=O)c1cncs1` (stereo not shown) [34.1] gave a pIC50 of 6.77.

Take `CC(=O)NC(C)Cc1ccc(C#Cc2ccc(Cl)cc2)cc1` (stereo not shown) [Example 1.1, N-(1-(4-((4-Chlorophenyl)ethynyl)phenyl)propan-2-yl)acetamide]: the pIC50 was 6.28.

Turning to `CC(=O)NC(C)Cc1ccc(C#Cc2ccc(C)cc2)cc1` (stereo not shown) [Example 1.2], the pIC50 was 6.09.

`CC(=O)NC(C)Cc1ccc(C#Cc2ccc(-c3ccc(Cl)cc3)nn2)cc1` (stereo not shown) [Example 1.3]: the pIC50 is 6.16. Next, `CC(=O)NC(C)Cc1ccc(C#Cc2cccc3ccccc23)cc1` (stereo not shown) [Example 1.4]: 5.70; `CC(=O)NC(C)Cc1ccc(C#Cc2ccc(C(=O)O)cc2)cc1` (stereo not shown) [Example 1.5]: 5.62; `CC(=O)NC(C)Cc1ccc(C#Cc2ccc3ccccc3c2)cc1` (stereo not shown) [Example 1.6]: 6.06. Consider `CC(=O)NC(C)Cc1ccc(C#Cc2cccc(OC(F)F)c2)cc1` (stereo not shown) [Example 1.7], for which the negative-log IC50 (pIC50) is 5.31. In turn, `CC(=O)NC(C)Cc1ccc(C#Cc2ccc(Oc3ccccc3)nc2)cc1` (stereo not shown) [Example 1.8] showed a pIC50 of 6.70.

`CC(=O)NC(C)Cc1ccc(C#Cc2cccc(C(=O)N3CCN(C(C)C)CC3)c2)cc1` (stereo not shown) [Example 1.9] had a pIC50 of 5.08. For `CC(=O)NC(C)Cc1ccc(C#Cc2ccc(C(=O)N3CCOCC3)cc2)cc1` (stereo not shown) [Example 1.10], the pIC50 is 5.26.

For `CC(=O)NC(C)Cc1ccc(C#Cc2ccc(C(=O)NCC(F)(F)F)cc2)cc1` (stereo not shown) [Example 1.11], the pIC50 was 5.77. In turn, `CC(=O)NC(C)Cc1ccc(C#Cc2ccc(C(=O)NCc3ccccc3)cc2)cc1` (stereo not shown) [Example 1.12] had a pIC50 of 5.64. As for `COc1ccc(-c2cnc(C#Cc3ccc(CC(C)NC(C)=O)cc3)cn2)cc1` (stereo not shown) [Example 1.13], the pIC50 was 5.96. Next, `CC(=O)NC(C)Cc1ccc(C#Cc2cnc(-c3ccc(Cl)cc3)cn2)cc1` (stereo not shown) [Example 1.14]: 6.70. The molecule `CC(=O)NC(C)Cc1ccc(C#Cc2ccc(-c3ccc(F)cc3)cn2)cc1` (stereo not shown) [Example 1.16] showed a pIC50 of 6.92. With `CC(=O)NC(C)Cc1ccc(C#Cc2ccc(-c3ccc(C)cc3)cn2)cc1` (stereo not shown) [Example 1.17], the pIC50 was 6.41. This pIC50 is 0.51 log units lower than that of the molecule before. As to `CC(=O)NC(C)Cc1ccc(C#Cc2ccc(C(=O)N3CCCC3)c(C)c2)cc1` (stereo not shown) [Example 1.18], the pIC50 is 6.00. This pIC50 lies 0.41 log units lower than the previous one. Next, `CC(=O)NC(C)Cc1ccc(C#Cc2ccc(N(C)C)cc2)cc1` (stereo not shown) [Example 1.19]: 5.82; `CC(=O)NC(C)Cc1ccc(C#Cc2ccc(OC(C)C)cn2)cc1` (stereo not shown) [Example 1.20]: 6.21; `CCc1ccc(C#Cc2ccc(CC(C)NC(C)=O)cc2)cc1` (stereo not shown) [Example 1.21]: 6.40. For the molecule `CC(=O)NC(C)Cc1ccc(C#Cc2ccc(C(C)C)cc2)cc1` (stereo not shown) [Example 1.22], the pIC50 is 6.54. This pIC50 and that of the molecule before are within 0.2 log units of each other. In turn, `CC(=O)NC(C)Cc1ccc(C#Cc2cccc(C(C)=O)c2)cc1` (stereo not shown) [Example 1.23] showed a pIC50 of 6.00. Regarding `CC(=O)NC(C)Cc1ccc(C#Cc2ccc(Br)cc2F)cc1` (stereo not shown) [Example 1.24], the pIC50 was 5.96. Turning to `CC(=O)NC(C)Cc1ccc(C#Cc2ccc3c(ccn3CCO)c2)cc1` (stereo not shown) [Example 1.25], the pIC50 was 5.29. Next, `COc1ccc(C#Cc2ccc(CC(C)NC(C)=O)cc2)c(C)c1` (stereo not shown) [Example 1.26]: 6.49; `CC(=O)NC(C)Cc1ccc(C#Cc2cccc(OC(C)C)c2)cc1` (stereo not shown) [Example 1.27]: 6.26.

In the case of `CCOc1ccc(C#Cc2ccc(CC(C)NC(C)=O)cc2)cc1` (stereo not shown) [Example 1.28, N-{2-[4-(4-ethoxy-phenylethynyl)-phenyl]-1-methyl-ethyl}-acetamide], the negative logarithm of the IC50 (pIC50) was 6.92. Turning to `CC(=O)NC(C)Cc1ccc(C#Cc2ccc(OC(C)C)cc2)cc1` (stereo not shown) [Example 1.29], the pIC50 is 6.60. Molecule `COc1ccc(C#Cc2ccc(C(C)NC(C)=O)cc2)c(C)c1` (stereo not shown) [Example 1.30] showed a pIC50 of 5.68.

Molecule `CC(Cc1ccc(C#Cc2ccc(-c3ccc(F)cc3)cn2)cc1)NC(=O)C1CC1` (stereo not shown) [Example 1.31] gave a pIC50 of 6.35. Next, `CC(=O)NC(C)Cc1ccc(C#Cc2cccc(C(=O)N3CCOCC3)c2)cc1` (stereo not shown) [Example 1.32]: 4.77; `CC(=O)NC(C)Cc1ccc(C#Cc2ccc(-n3cccc3)cc2)cc1` (stereo not shown) [Example 2.1, N-(1-(4-((4-(1H-Pyrrol-1-yl)phenyl)ethynyl)phenyl)propan-2-yl)acetamide]: 6.34. Consider `CCOC(=O)c1cccc(C#Cc2ccc(CC(C)NC(C)=O)cc2)c1` (stereo not shown) [Example 2.2], for which the pIC50 is 6.41. This pIC50 and that of the molecule before are within 0.2 log units of each other. `CC(=O)NC(C)Cc1ccc(C#Cc2ccc(C(F)(F)F)cc2Cl)cc1` (stereo not shown) [Example 2.3] had a negative-log IC50 (pIC50) of 5.85. This pIC50 lies 0.56 log units lower than the previous one. The molecule `CC(=O)NC(C)Cc1ccc(C#Cc2cccc3ncccc23)cc1` (stereo not shown) [Example 2.4] showed a pIC50 of 5.48. As for `CC(=O)NC(C)Cc1ccc(C#Cc2ccc(OCC3(N)CC3)c(C)c2)cc1` (stereo not shown) [Example 2.5], the pIC50 is 6.09. Take `CC(=O)NC(C)Cc1ccc(C#Cc2ccc(N3CCCCC3=O)cc2)cc1` (stereo not shown) [Example 2.6]: the pIC50 was 5.85.

`CC(=O)NC(C)Cc1ccc(C#Cc2ccc(OC(F)F)cc2)cc1` (stereo not shown) [Example 2.7] showed a pIC50 of 6.12.

With `CC(=O)NC(C)Cc1ccc(C#Cc2ccc3c(c2)CCO3)cc1` (stereo not shown) [Example 2.8], the pIC50 is 6.14.

`COc1ncc(C#Cc2ccc(CC(C)NC(C)=O)cc2)c(OC)n1` (stereo not shown) [Example 2.9] showed a pIC50 of 5.82. Next, `CC(=O)NC(C)Cc1ccc(C#Cc2ccc(OC(F)(F)F)cc2C#N)cc1` (stereo not shown) [Example 2.10]: 5.12. `CC(=O)NC(C)Cc1ccc(C#Cc2ccc(C(C)(C)C)cc2C#N)cc1` (stereo not shown) [Example 2.11] gave a negative logarithm of the IC50 (pIC50) of 6.57.

Molecule `CC(=O)NC(C)Cc1ccc(C#Cc2ccc(CN3CCCC3)cc2)cc1` (stereo not shown) [Example 2.12] had a pIC50 of 5.17. This pIC50 lies 1.40 log units lower than the previous one. As to `COc1ncccc1C#Cc1ccc(CC(C)NC(C)=O)cc1` (stereo not shown) [Example 2.13], the pIC50 was 5.28. As to `CCCOc1cc(C#Cc2ccc(CC(C)NC(C)=O)cc2)ccn1` (stereo not shown) [Example 2.14], the pIC50 was 6.89. As for `CC(=O)NC(C)Cc1ccc(C#Cc2ccc(Br)cc2)cc1` (stereo not shown) [Example 2.15], the pIC50 is 6.25. Regarding `CC(=O)NC(C)Cc1ccc(C#Cc2ccc(Oc3ccccc3)cc2)cc1` (stereo not shown) [Example 2.16], the pIC50 is 6.92. Molecule `CC(=O)NC(C)Cc1ccc(C#Cc2ccc(OCC(C)C)cc2)cc1` (stereo not shown) [Example 2.17] had a pIC50 of 6.96.

For `CC(=O)NC(C)Cc1ccc(C#Cc2ccc(CCO)cc2)cc1` (stereo not shown) [Example 2.18], the pIC50 was 5.66. `CC(=O)NC(C)Cc1ccc(C#Cc2ccc(C(C)=O)cc2)cc1` (stereo not shown) [Example 2.19]: the pIC50 is 5.44. Compared with the last molecule, the pIC50 is 0.22 log units lower. Next, `CCCc1ccc(C#Cc2ccc(CC(C)NC(C)=O)cc2)cc1` (stereo not shown) [Example 2.20]: 6.52; `CC(=O)NC(C)Cc1ccc(C#Cc2ccc(OC(C)C)nc2)cc1` (stereo not shown) [Example 2.21]: 6.62; `COc1ccc(C#Cc2ccc(CC(C)NC(C)=O)cc2)cn1` (stereo not shown) [Example 2.22]: 6.14. Regarding `CC(=O)NC(C)Cc1ccc(C#Cc2ccc(OCC3CC3)nc2)cc1` (stereo not shown) [Example 2.23], the pIC50 is 6.49. Compared with the last molecule, the pIC50 is 0.35 log units higher.

Molecule `COCCOc1ccc(C#Cc2ccc(CC(C)NC(C)=O)cc2)cn1` (stereo not shown) [Example 2.24] showed a pIC50 of 6.12. On to `CC(=O)NC(C)Cc1ccc(C#Cc2ccc(OC3CCCC3)nc2)cc1` (stereo not shown) [Example 2.25], for which the pIC50 is 6.77.

What is called pIC50 is −log10 of the IC50, conventionally taken in molar units. A higher pIC50 goes with a small IC50.
